Results on 15 molecules are retold here after patent publication US6365598B1, “Pyrroloquinolines for treatment of obesity” (Vernalis Research Limited, priority 1998, dated 2002).

For series [1], the target named is T1, 5-HT2A receptors (Homo sapiens, UniProt P28223). As to the kind of experiment: Functional activity, FLIPR calcium assay, CHO cells expressing human 5-HT2A. Type of series: cell-based. Further details: expressed in transfected cells; host or cells: CHO cells. The settings on record: for pEC50: FLIPR, CHO cells, Fluo-3-AM, read-out: h5-HT2A EC50; for h5-HT2A Relative Efficacy (%): maximum fluorescent signal relative to 10 μM 5-HT (defined as 100%). How it is done:
(§1) The functional activity of compounds of formula (I) was assayed using a Fluorimetric Imaging Plate reader (FLIPR). CHO cells expressing the human 5-HT2C or human 5-HT2A receptors were counted and plated into standard 96 well microtitre plates on the day before testing to give a confluent monolayer. The cells were then dye loaded with the calcium sensitive dye, Fluo-3-AM. Unincorporated dye was removed using an automated cell washer to leave a total volume of 100 μL/well of assay buffer (Hanks balanced salt solution containing 20 mM Hepes and 2.5 mM probenecid). The drug (dissolved in 50 μL of the assay buffer) was added at a rate of 70 μL/sec to each well of the FLIPR 96 well plate during fluorescence measurements. The measurements were taken at 1 sec intervals and the maximum fluorescent signal was measured (approx 10-15 secs after drug addition) and compared with the response produced by 10 μM 5-HT (defined as 100%) to which it was expressed as a percentage response (relative efficacy). Dose response curves were constructed using Graphpad Prism (Graph Software Inc.).

For series [2], the target named is T2, 5-HT2c receptors (Homo sapiens, UniProt P28335).
T2 sequence (P28335 33-458): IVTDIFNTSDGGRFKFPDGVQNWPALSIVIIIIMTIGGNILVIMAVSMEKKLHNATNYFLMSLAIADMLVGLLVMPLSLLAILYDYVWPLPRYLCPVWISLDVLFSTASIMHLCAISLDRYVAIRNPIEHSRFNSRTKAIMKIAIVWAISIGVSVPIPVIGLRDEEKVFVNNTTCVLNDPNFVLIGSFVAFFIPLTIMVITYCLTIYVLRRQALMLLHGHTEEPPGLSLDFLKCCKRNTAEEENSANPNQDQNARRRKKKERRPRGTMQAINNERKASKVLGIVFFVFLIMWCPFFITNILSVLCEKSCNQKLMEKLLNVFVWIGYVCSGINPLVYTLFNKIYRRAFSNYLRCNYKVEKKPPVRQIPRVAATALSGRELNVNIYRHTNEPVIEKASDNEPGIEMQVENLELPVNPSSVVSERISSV
The experiment in a line: Functional activity, FLIPR calcium assay, CHO cells expressing human 5-HT2C. Type of series: cell-based. Further details: expressed in transfected cells; host or cells: CHO cells. The settings on record: for pEC50: FLIPR, CHO cells, Fluo-3-AM, read-out: h5-HT2C EC50; for h5-HT2C Relative Efficacy (%): maximum fluorescent signal relative to 10 μM 5-HT (defined as 100%). Here is the method: as §1

The target of another series is T3, human 5-HT2B receptors (Homo sapiens, UniProt P41595).
T3 construct: expressed in transfected cells; host or cells: CHO cell line
T3 sequence (P41595 whole entry): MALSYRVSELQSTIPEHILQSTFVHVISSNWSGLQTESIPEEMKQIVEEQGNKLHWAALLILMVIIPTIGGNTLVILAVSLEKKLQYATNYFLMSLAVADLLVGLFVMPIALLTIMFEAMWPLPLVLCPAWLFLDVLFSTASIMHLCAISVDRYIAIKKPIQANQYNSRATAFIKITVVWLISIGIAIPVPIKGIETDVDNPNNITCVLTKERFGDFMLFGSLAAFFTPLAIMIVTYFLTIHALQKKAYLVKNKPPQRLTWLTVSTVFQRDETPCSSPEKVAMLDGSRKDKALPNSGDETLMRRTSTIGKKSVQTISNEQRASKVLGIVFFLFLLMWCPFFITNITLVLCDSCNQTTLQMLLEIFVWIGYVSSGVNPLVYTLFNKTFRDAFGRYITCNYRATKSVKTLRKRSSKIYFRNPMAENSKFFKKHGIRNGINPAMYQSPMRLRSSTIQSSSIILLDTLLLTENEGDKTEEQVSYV
The experiment in a line: Binding to 5-HT2B receptor, [3H]-5-HT, CHO cell line. The conditions noted are these: read-out: Ki (2B). How it is done:
(§2) 1. Binding to Serotonin Receptors
(§3) The binding of compounds of formula (I) to serotonin receptors was determined in vitro by standard methods. The preparations were investigated in accordance with the assays given hereinafter.
Method (b): For the binding to the 5-HT2B receptor the 5-HT2B receptors were radiolabeled with [^3H]-5-HT. The affinity of the compounds for human 5-HT2B receptors in a CHO cell line was determined according to the procedure of K. Schmuck, C. Ullmer, P. Engels and H. Lubbert, FEBS Lett., 1994, 342, 85-90.

In a further series the test system is food deprived animals. As to the kind of experiment: Regulation of feeding behaviour: food consumption in food deprived animals. Type of series: in vivo. The settings on record: 2 hours after a dose of 10 mg/kg s.c. Here is the method: 4. Regulation of Feeding Behaviour
The in vivo activity of compounds of formula (I) on feeding behaviour was assayed by measuring food consumption in food deprived animals.
Test compounds were assessed following acute administration. Each study utilised a between-subjects design (typically n=8) and compared the effects of doses of the test agent to those of vehicle and a positive control.
The anorectic drug d-fenfluramine normally serves as a positive control. The route of drug administration, drug volume and injection-test-interval are dependent upon the compounds used. A palatable wet mash, made by adding powdered lab chow and water in a ratio of 1:2 and mixing to a smooth consistency, was presented in 120 ML glass jars for 60 minutes each day. Intake was measured by weighing before and after each session. Care was taken to collect all spillage. Animals were allowed to habituate to the wet mash meal for 10 days. After drug administration, animals were allowed to consume the wet mash. Food consumption was assayed at pre-determined time points (typically 1, 2 and 4 hours after administration). Food intake data were subjected to one-way analysis of variance (ANOVA) with drug as a between-subjects factor. […] All statistical analyses were performed using Statistica Software, Version 5.0 (Statsoft Inc.) and Microsoft Excel 7.0 (Microsoft Corp.).

Series [3] addresses T2, 5-HT2c receptors. The experiment in a line: Binding to 5-HT2C receptor, [3H]-5-HT, CHO cell line. The conditions noted are these: read-out: Ki (2C). Further details: expressed in transfected cells; host or cells: CHO cell line. How it is done: as §2, §3
Method (a): For the binding to the 5-HT2c, receptor the 5-HT2c receptors were radiolabeled with [^3H]-5-HT. The affinity of the compounds for 5-HT2c receptors in a CHO cell line was determined according to the procedure of D. Hoyer, G. Engel and H. O. Kalkman, European J. Pharmacol., 1985, 118,13-23.

For series [4], the target named is T1, 5-HT2A receptors. The experiment in a line: Binding to 5-HT2A receptor, [125I]-DOI, CHO cell line. Set-up: expressed in transfected cells; host or cells: CHO cell line. The conditions noted are these: read-out: Ki (2A). Here is the method:
as §2, §3
Method (c): For the binding to the 5-HT2A receptor the 5-HT2A receptors were radiolabeled with [^125I]-DOI. The affinity of the compounds for 5-HT2A receptors in a CHO cell line was determined according to the procedure of D. J. McKenna and S. J. Peroutka, J. Neurosci., 1989, 9, 3482-90.

Each structure is given as a SMILES string. pEC50, pKi: −log10 of the molar value. Structures can show the parent of a compound that is named as a salt.

T1 sequence (P28223 whole entry): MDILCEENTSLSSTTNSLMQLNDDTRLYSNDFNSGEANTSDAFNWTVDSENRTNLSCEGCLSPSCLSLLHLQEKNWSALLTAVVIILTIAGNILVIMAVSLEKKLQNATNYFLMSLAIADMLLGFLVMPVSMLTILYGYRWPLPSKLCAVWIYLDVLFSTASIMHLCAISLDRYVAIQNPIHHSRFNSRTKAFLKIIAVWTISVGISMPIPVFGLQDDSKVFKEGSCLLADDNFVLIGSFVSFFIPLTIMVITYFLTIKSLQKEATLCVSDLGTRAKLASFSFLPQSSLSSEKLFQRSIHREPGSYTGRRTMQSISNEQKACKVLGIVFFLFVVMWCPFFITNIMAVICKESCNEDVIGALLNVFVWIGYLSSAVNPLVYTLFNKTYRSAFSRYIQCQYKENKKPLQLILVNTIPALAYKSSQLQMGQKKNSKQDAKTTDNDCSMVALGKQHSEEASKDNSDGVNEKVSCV

`C[C@H](N)Cn1ccc2cc(Cl)c3ncccc3c21` [Example 5, (S)-1-(5-Chloro-1H-pyrrolo[2,3-f]-quinolin-1-yl)-2-propylamine fumarate]: on 5-HT2A receptors [1], the pEC50 (in general, the negative decadic logarithm of the EC50, by convention in mol/L) was 7.28 and the “h5-HT2A Relative Efficacy (%)” value is 80%. In addition, at 5-HT2c receptors [2], the pEC50 was 8.30 and the “h5-HT2C Relative Efficacy (%)” value came to 86%.

Turning to `C[C@H](N)Cn1ccc2ccc3cnccc3c21` (as salt: fumarate) [Example 4, (S)-1-(1H-Pyrrolo[2,3-f]isoquinolin-1-yl)-2-propylamine fumarate], the melting point (usually the temperature, or range, at which the solid turns liquid) was 165 °C.

In the case of `COc1nccc2c1ccc1ccn(C[C@H](C)N)c12` (as salt: fumarate), the melting point is 180 to 182 °C.

The molecule `C[C@H](N)Cn1ccc2cc(Cl)c3ncccc3c21` (as salt: fumarate) [Example 5, (S)-1-(5-Chloro-1H-pyrrolo[2,3-f]-quinolin-1-yl)-2-propylamine fumarate] registered a melting point of 228 to 229 °C.

For the molecule `C[C@@H](N)Cn1ccc2ccc3ncccc3c21` [Example 2, (R)-1-(1H-Pyrrolo[2,3-f]quinolin-1-yl)-2-propylamine], the pKi (in general, −log10 of the Ki, conventionally taken in molar units) on human 5-HT2B receptors was 8.30; on 5-HT2c receptors [3] it was 7.66; on 5-HT2A receptors [4], 7.43. For the same molecule, in the series with food deprived animals, the “hypophagia (food consumption)” value is listed as “significant hypophagia”. In addition, the pEC50 on 5-HT2A receptors [1] is 7.06; on 5-HT2c receptors [2] it was 8.15. At 5-HT2A receptors [1], the “h5-HT2A Relative Efficacy (%)” value stood at 96%. The “h5-HT2C Relative Efficacy (%)” value on 5-HT2c receptors [2] is 85%.

For the molecule `C[C@H](N)Cn1ccc2ccc3cccnc3c21` (as salt: fumarate) [Example 8, (S)-1-(1H-Pyrrolo[3,2-h]quinolin-1-yl)-2-propylamine hemifumarate], the melting point was 212 to 214 °C.

On to `C[C@H](N)Cn1ccc2ccc3cnccc3c21` [Example 4, (S)-1-(1H-Pyrrolo[2,3-f]isoquinolin-1-yl)-2-propylamine fumarate], for which the pKi at human 5-HT2B receptors was 7.08; on 5-HT2c receptors [3], 6.81; at 5-HT2A receptors [4] it was 6.76. Moreover, the values for the pEC50 on 5-HT2A receptors [1] and on 5-HT2c receptors [2] were 6.06 and 6.85, respectively. Besides, the “h5-HT2A Relative Efficacy (%)” value at 5-HT2A receptors [1] is reported as 54%. Further, at 5-HT2c receptors [2], the “h5-HT2C Relative Efficacy (%)” value was found to be 89%.

`C[C@H](N)Cn1ccc2ccc3cccnc3c21` [Example 8, (S)-1-(1H-Pyrrolo[3,2-h]quinolin-1-yl)-2-propylamine hemifumarate]: the pKi on human 5-HT2B receptors is 7.06; on 5-HT2c receptors [3], 7.35; at 5-HT2A receptors [4], 7.05. Further, the pEC50 at 5-HT2A receptors [1] was 5.97; on 5-HT2c receptors [2], 7.00. Moreover, the “h5-HT2A Relative Efficacy (%)” value on 5-HT2A receptors [1] is on record as 31%. The “h5-HT2C Relative Efficacy (%)” value at 5-HT2c receptors [2] was determined as 24%.

Consider `C[C@H](N)Cn1ccc2ccc3ccncc3c21` [Example 7, (S)-1-(1H-Pyrrolo[3,2-h]isoquinolin-1-yl)-2-propylamine fumarate], for which, at 5-HT2A receptors [1], the pEC50 is 6.20 and the “h5-HT2A Relative Efficacy (%)” value is reported as 61%. In addition, at 5-HT2c receptors [2], the pEC50 is 7.44 and the “h5-HT2C Relative Efficacy (%)” value was 83%.

On to `CC(N)Cn1ccc2ccc3ncccc3c21` (racemic) [Example 3, (RS)-1-(1H-Pyrrolo[2,3-f]quinolin-1-yl)-2-propylamine hydrochloride], for which the results for the pKi at human 5-HT2B receptors, at 5-HT2c receptors [3] and on 5-HT2A receptors [4] were 8.05, 7.62 and 7.40, respectively.

For `C[C@@H](Cn1ccc2ccc3ncccc3c21)NCc1ccc2c(c1)OCO2` [Example 9, (S)-[1-(1H-Pyrrolo[2,3-f]quinolin-1-yl)-2-propyl]-(3,4-methylenedioxybenzyl)amine bis-fumarate], on 5-HT2A receptors [1], the pEC50 was 5.89 and the “h5-HT2A Relative Efficacy (%)” value was found to be 65%. On 5-HT2c receptors [2], the pEC50 is 7.07 and the “h5-HT2C Relative Efficacy (%)” value came out at 90%.

Molecule `C[C@H](N)Cn1ccc2ccc3ccncc3c21` (as salt: fumarate) [Example 7, (S)-1-(1H-Pyrrolo[3,2-h]isoquinolin-1-yl)-2-propylamine fumarate] gave a melting point of 153 to 154 °C.

Regarding `C[C@H](N)Cn1ccc2ccc3ncccc3c21` [Example 1, (S)-1-(1H-Pyrrolo[2,3-f]quinolin-1-yl)-2-propylamine], the pKi was 7.92 at human 5-HT2B receptors, 8.05 at 5-HT2c receptors [3] and 7.35 on 5-HT2A receptors [4]. Besides, the “hypophagia (food consumption)” value with food deprived animals was “significant hypophagia”. Also, the pEC50 at 5-HT2A receptors [1] was 6.44; on 5-HT2c receptors [2], 7.92. In addition, the “h5-HT2A Relative Efficacy (%)” value on 5-HT2A receptors [1] stood at 100%. Moreover, on 5-HT2c receptors [2], the “h5-HT2C Relative Efficacy (%)” value came out at 93%.

Molecule `C[C@H](N)Cn1ccc2ccc3ncccc3c21` (as salt: hydrochloride) [Example 1, (S)-1-(1H-Pyrrolo[2,3-f]quinolin-1-yl)-2-propylamine] came in with a melting point of 222 to 224 °C.

As for `C[C@@H](N)Cn1ccc2ccc3ncccc3c21` (as salt: hydrochloride) [Example 2, (R)-1-(1H-Pyrrolo[2,3-f]quinolin-1-yl)-2-propylamine], the melting point fell in the range of 223 to 225 °C.
